Source: patent US7589080B2, “β-cyclodextrin compositions, and use to prevent transmission of sexually transmitted diseases” (priority 2000, dated 2009)

What was measured:
Type in all cases: cell-based
[1] = test system: CXCR4, CD4 and CD45 on PHA blasts; experiment: Immunostaining and confocal microscopy of PHA blasts
Protocol: Cell-surface staining of 2-OH-βCD-treated and untreated cells was performed under saturating conditions. 2-OH-βCD-treated and untreated PHA blasts (3×10^5) were washed in cold PBS and pre-incubated on ice for 15 min in 5% NGS/PBS. Cells were then incubated with MAb 1-5 μg in 5% NGS/PBS 45 min on ice, washed with PBS and then incubated with 2 μg of FITC-GAM in 5% NGS/PBS. The cells were then fixed with 2% paraformaldehyde in PBS and spun onto poly-L-lysine coated slides using cyto-funnels. The pellets were overlaid with 50 μl of 25% glycerol in PBS and a coverslip was positioned over the droplet. The edges of the slides were sealed with nail polish before storing them at 4° C. This staining procedure was also performed with cells prefixed with 2% paraformaldehyde in PBS prior to MAb staining. Viewing of slides was performed with an Olympus IX50 confocal microscope under oil immersion at 100x magnification. Micrographs were acquired onto a Silicon Graphics Workstation with Intervision software. Final images were enhanced on the Silicon Graphics Workstation by two-dimensional deconvolution, and brightness and contrast were adjusted for viewing.
Patchy staining of CXCR4 persisted after 2-OH-βCD treatment whether the cells were fixed before or after mAb staining. […]

HIV-1RF = experiment: Free virus binding assay (transfer of class II MHC to Jurkat cells)
Protocol: Virus binding was measured through host cell antigen transfer as described (Liao et al., supra, 2000). Briefly, Jurkat cells (1×10^6) were washed with serum free RPMI-1640 medium (iRPMI) before incubation in 20 mM 2-OH-βCD in iRPMI or iRPMI alone for 1 hr at 37° C. Cells were then washed twice with iRPMI before adding 100 Tl of clarified HIV-1 supernatant (>10 ng/ml of p24 from PM1 cells) for 1 hr on ice. Excess virus was removed by washing twice with iRPMI. MAbs were then added at 20 ug/ml in 5% NGS/PBS and allowed to incubate for 1 h on ice before washing with iRPMI. FITC-GAM (10 ug/ml) was then added for 45 min on ice before washing with iRPMI. Cells were then fixed with 2% paraformaldehyde followed by analysis on an EPICS Profile II flow cytometer.
The possibility that βCD treatment affected virus binding or interactions between gp120 and CD4 or CRs was examined. In order to measure virus binding to cells, a flow cytometry assay was used that measures the transfer of host cell class II MHC proteins to class II MHC-negative cells by HIV virions, which incorporate large numbers of these proteins into their lipid envelopes. […] Class II MHC-negative Jurkat cells were used as target cells in the HIV binding assay. As a positive control for flow cytometry analysis, class I MHC molecules were probed on the Jurkat cells, which were stained equally well with MAb against this protein before and after 2-OH-βCD treatment (Table 3). When HIV-1RF from class II MHC-positive PM1 cells was added to untreated Jurkat cells, class II MHC MAb mean channel fluorescence increased from 1.0 to 7.8 relative fluorescence units, while the percentage of positive cells increased from 3.0% to 55.4% (Table 3). 2-OH-βCD treatment of the cells reduced virus binding by 70%, as determined by mean channel fluorescence of the anti-class II MHC mAb.
HIV binding to Jurkat cells (control and 2-OH-βCD-treated) was measured by transfer of class II MHC molecules. MAbs used were MHM.5 (anti-class I MHC), positive control; MHM.33 (anti-class II MHC). “MCF” indicates mean channel fluorescence. “% Pos” indicates percent positive cells. “ND” indicates not determined.

CXCR4 = experiment: Flow cytometry of CXCR4 surface expression
Protocol: Flow cytometry was performed as previously described (Orentas and Hildreth, supra, 1993). Briefly, 2×10^5 2-OH-βCD treated or untreated cells in 100 μl PBS containing 5% normal goat serum (NGS) were added to 100 μl of MAb (1-5 μg) and incubated 30 min on ice. In comparative experiments we prefixed the cells with 2% paraformaldehyde in PBS immediately after 2-OH-βCD treatment. Cells were washed with PBS, resuspended in 100 μl of PBS, 5% NGS containing 2 Tg of FITC conjugated-goat anti-mouse IgG (FITC-GAM) and incubated 1 h on ice. Cells were then washed with PBS and fixed with 2% paraformaldehyde followed by analysis on an EPICS Profile II flow cytometer.
Cholesterol depletion also promoted CXCR4 down-modulation by MAb-induced internalization. A possible explanation for the inhibition of syncytium formation by cholesterol depletion as described above is that CD4, CRs, or both are lost from the cell surface, for example, by extrusion from the membrane in vesicles after loss of cholesterol, or they could be internalized. To explore these possibilities, βCD treated cells were examined for expression of HIV receptors by flow cytometry. […] In contrast, cell surface expression of CXCR4 was reduced by 50% or more in all of the cells after 2-OH-βCD treatment (Table 1).
In order to determine whether the loss of CXCR4 expression was due to MAb-induced internalization, cells were fixed with 2% paraformaldehyde in PBS immediately after 2-OH-βCD treatment and before staining with MAbs for flow cytometry.

2-hydroxypropyl-β-cyclodextrin [2-OH-βCD]
Distribution of CXCR4 on the cell surface ([1]; PHA blasts after cholesterol depletion): not significantly redistributed | Distribution of CD4 and CD45 on the cell surface ([1]; PHA blasts after treatment): unchanged | Reduction of virus binding, by mean channel fluorescence of the anti-class II MHC mAb (HIV-1RF; Jurkat cells treated with 20 mM): 70% | MHM5 (anti-class I MHC) % Pos (HIV-1RF; treated Jurkat cells, HIVRF): 100% | MHM5 (anti-class I MHC) MCF (HIV-1RF; treated Jurkat cells, HIVRF): 167.8 MCF | MHM33 (anti-class II MHC) % Pos (HIV-1RF; treated Jurkat cells, HIVRF): 26.0% | MHM33 (anti-class II MHC) MCF (HIV-1RF; treated Jurkat cells, HIVRF): 2.4 MCF | IgG1 % Pos (HIV-1RF; treated Jurkat cells, no virus): 3.4% | IgG1 MCF (HIV-1RF; treated Jurkat cells, no virus): 0.7 MCF | MHM5 (anti-class I MHC) % Pos (HIV-1RF; treated Jurkat cells, no virus): 100% | MHM5 (anti-class I MHC) MCF (HIV-1RF; treated Jurkat cells, no virus): 165 MCF | MHM33 (anti-class II MHC) % Pos (HIV-1RF; treated Jurkat cells, no virus): 3.3% | MHM33 (anti-class II MHC) MCF (HIV-1RF; treated Jurkat cells, no virus): 0.7 MCF | CXCR4 (MCF) (CXCR4; H9, 20 mM, fixed with 2% paraformaldehyde immediately after treatment): 55 MCF | CXCR4 (MCF) (CXCR4; H9 cells, 20 mM, not fixed before staining): 6.7 MCF | CXCR4 (MCF) (CXCR4; MT2 cells, 20 mM, not fixed before staining): 16.7 MCF | CXCR4 (MCF) (CXCR4; PM1, 20 mM, fixed with 2% paraformaldehyde immediately after treatment): 64 MCF | CXCR4 (MCF) (CXCR4; PM1 cells, 20 mM, not fixed before staining): 3.1 MCF | CXCR4 (MCF) (CXCR4; SupT1, 20 mM, fixed with 2% paraformaldehyde immediately after treatment): 91 MCF | CXCR4 (MCF) (CXCR4; SupT1 cells, 20 mM, not fixed before staining): 15.0 MCF | Reduction of cell surface expression of CXCR4 (CXCR4; all of the cells, not fixed before staining): ≥ 50% | Anti-CXCR4 MAb staining compared to control cells (CXCR4; cells fixed and permeabilized after the MAb binding step): no significant reduction | CXCR4 expression on the cell surface (CXCR4; cells fixed immediately after treatment, before MAb staining): remained unchanged
